Columns and labels:
Type in all cases: functional
[1] = tested on: Blumeria graminis f. sp. tritici; assay: Fungicidal activity against Blumeria graminis f. sp. tritici assessed as wheat powdery mildew disease control at 2 ppm foliar application for 48 hr before inoculation by preventive manner
[2] = tested on: Pseudoperonospora cubensis; assay: Fungicidal activity against Pseudoperonospora cubensis assessed as cucumber downy mildew disease control at 2 ppm foliar application 24 hr before inoculation onto the adaxial(treated) surface of leaf by preventive manner
Podosphaera fuliginea [3] = assay: Fungicidal activity against Podosphaera fuliginea assessed as cucumber powdery mildew control at 7.8 ppm foliar application 24 hr before inoculation at 23 +/- 2 degC by preventive manner
Botrytis cinerea [4] = assay: Fungicidal activity against Botryotinia fuckeliana assessed as cucumber gray mold disease control at 7.8 ppm foliar application […] at 22 +/- 2 degC by preventive manner
Pyricularia oryzae [5] = assay: Fungicidal activity against Magnaporthe oryzae assessed as rice blast disease control at 31.3 ppm foliar application for 24 hr before inoculation at 27 +/- 2 degC measured after 5 days by preventive manner
Thanatephorus cucumeris [6] = assay: Fungicidal activity against Thanatephorus cucumeris assessed as rice sheath blight disease control at 31.3 ppm foliar application for 24 hr before inoculation at 26 +/- 2 degC measured after 5 days by preventive manner
[7] = tested on: Pseudoperonospora cubensis; assay: Fungicidal activity against Pseudoperonospora cubensis assessed as cucumber downy mildew disease control at 125 ppm foliar application 24 hr before inoculation onto the abaxial(untreated) surface of leaf by preventive manner
Thanatephorus cucumeris [8] = assay: Fungicidal activity against Thanatephorus cucumeris assessed as rice sheath blight disease control at 125 ppm foliar application for 24 hr before inoculation at 26 +/- 2 degC measured after 5 days by preventive manner
[9] = tested on: Pseudoperonospora cubensis; assay: Fungicidal activity against Pseudoperonospora cubensis assessed as cucumber downy mildew disease control at 7.8 ppm foliar application 24 hr before inoculation onto the adaxial(treated) surface of leaf by preventive manner
[10] = tested on: Pseudoperonospora cubensis; assay: Fungicidal activity against Pseudoperonospora cubensis assessed as cucumber downy mildew disease control at 7.8 ppm foliar application 24 hr before inoculation onto the abaxial(untreated) surface of leaf by preventive manner
[11] = tested on: Blumeria graminis f. sp. tritici; assay: Fungicidal activity against Blumeria graminis f. sp. tritici assessed as wheat powdery mildew disease control at 31.3 ppm foliar application for 48 hr before inoculation by preventive manner
Podosphaera fuliginea [12] = assay: Fungicidal activity against Podosphaera fuliginea assessed as cucumber powdery mildew control at 2 ppm foliar application 24 hr before inoculation at 23 +/- 2 degC by preventive manner
Pyricularia oryzae [13] = assay: Fungicidal activity against Magnaporthe oryzae assessed as rice blast disease control at 125 ppm foliar application for 24 hr before inoculation at 27 +/- 2 degC measured after 5 days by preventive manner
[14] = tested on: Blumeria graminis f. sp. tritici; assay: Fungicidal activity against Blumeria graminis f. sp. tritici assessed as wheat powdery mildew disease control at 125 ppm foliar application for 48 hr before inoculation by preventive manner
Podosphaera fuliginea [15] = assay: Fungicidal activity against Podosphaera fuliginea assessed as cucumber powdery mildew control at 125 ppm foliar application 24 hr before inoculation at 23 +/- 2 degC by preventive manner
[16] = tested on: Blumeria graminis f. sp. tritici; assay: Fungicidal activity against Blumeria graminis f. sp. tritici assessed as wheat powdery mildew disease control at 7.8 ppm foliar application 48 24 hr before inoculation by preventive manner
Podosphaera fuliginea [17] = assay: Fungicidal activity against Podosphaera fuliginea assessed as cucumber powdery mildew control at 31.3 ppm foliar application 24 hr before inoculation at 23 +/- 2 degC by preventive manner
Botrytis cinerea [18] = assay: Fungicidal activity against Botryotinia fuckeliana assessed as cucumber gray mold disease control at 31.3 ppm foliar application […] at 22 +/- 2 degC by preventive manner
Botrytis cinerea [19] = assay: Fungicidal activity against Botryotinia fuckeliana assessed as cucumber gray mold disease control at 125 ppm foliar application […] at 22 +/- 2 degC by preventive manner
[20] = tested on: Pseudoperonospora cubensis; assay: Fungicidal activity against Pseudoperonospora cubensis assessed as cucumber downy mildew disease control at 31.3 ppm foliar application 24 hr before inoculation onto the abaxial(untreated) surface of leaf by preventive manner
[21] = tested on: Pseudoperonospora cubensis; assay: Fungicidal activity against Pseudoperonospora cubensis assessed as cucumber downy mildew disease control at 125 ppm foliar application 24 hr before inoculation onto the adaxial(treated) surface of leaf by preventive manner

SMILES | Activity [2] [%] | Activity (Podosphaera fuliginea [3]) [%] | Activity (Botrytis cinerea [4]) [%] | Activity (Pyricularia oryzae [5]) [%] | Activity [7] [%] | Activity (Thanatephorus cucumeris [8]) [%] | Activity [9] [%] | Activity (Pyricularia oryzae [13]) [%] | Activity [14] [%] | also measured
CNC(=O)/C(=N/OC)c1ccccc1COc1cc(C)cc(C)c1 | 90 | 90 | 90 | 90 | <90 |  |  |  |  | Activity [1]: 90%; Activity (Thanatephorus cucumeris [6]): 90%
CNC(=O)/C(=N/OC)c1ccccc1COc1ccccc1F |  | 90 | 90 | 90 |  | 90 | 90 |  |  | Activity [10]: 90%
CNC(=O)/C(=N/OC)c1ccccc1COc1cc(Cl)cc(Cl)c1Cl | 90 |  | 90 |  | <90 | <90 |  | <90 |  | Activity [11]: 90%; Activity (Podosphaera fuliginea [12]): 90%
CNC(=O)/C(=N/OC)c1ccccc1COc1ccc(C(=O)c2ccccc2)cc1 |  |  | 90 |  | <90 | <90 |  | 90 | 90 | Activity (Podosphaera fuliginea [15]): <90%
CNC(=O)/C(=N/OC)c1ccccc1COc1cccc(F)c1 |  |  |  | 90 |  | 90 | 90 |  |  | Activity [16]: 90%; Activity (Podosphaera fuliginea [17]): 90%; Activity (Botrytis cinerea [18]): 90%; Activity [10]: 90%
CNC(=O)/C(=N/OC)c1ccccc1COc1cc(C)c(C)cc1Cl | 90 | 90 | 90 |  | <90 | <90 |  | 90 | 90 | 
C#CCOc1cccc(OCc2ccccc2/C(=N\OC)C(=O)NC)c1 | 90 |  |  |  | 90 | <90 |  | 90 | 90 | Activity (Botrytis cinerea [18]): 90%; Activity (Podosphaera fuliginea [15]): 90%
CNC(=O)/C(=N/OC)c1ccccc1COc1ccc(/C=C\c2ccccc2)cc1 |  |  |  |  | <90 | <90 |  | <90 | 90 | Activity (Podosphaera fuliginea [15]): <90%; Activity (Botrytis cinerea [19]): <90%
CNC(=O)/C(=N/OC)c1ccccc1COc1cc(C)c(Cl)c(C)c1 | 90 | 90 | 90 | 90 | 90 | <90 |  |  |  | Activity [16]: 90%
CNC(=O)/C(=N/OC)c1ccccc1COc1cccc(Cl)c1 | 90 | 90 | 90 | 90 |  |  |  |  |  | Activity [16]: 90%; Activity (Thanatephorus cucumeris [6]): 90%; Activity [10]: 90%
C#CCOc1ccc(OCc2ccccc2/C(=N\OC)C(=O)NC)cc1 |  | 90 | 90 | 90 |  | <90 | 90 |  | 90 | Activity [20]: 90%
CNC(=O)/C(=N/OC)c1ccccc1COc1c(C)ccc(C)c1C |  |  |  |  | 90 | <90 |  | 90 | <90 | Activity [21]: <90%; Activity (Podosphaera fuliginea [15]): <90%; Activity (Botrytis cinerea [19]): <90%
CNC(=O)/C(=N/OC)c1ccccc1COc1c(C)cc(C)cc1C |  |  |  |  | <90 | <90 | 90 | 90 | 90 | Activity (Botrytis cinerea [18]): 90%; Activity (Podosphaera fuliginea [15]): 90%
CNC(=O)/C(=N/OC)c1ccccc1COc1cc(F)ccc1F | 90 | 90 | 90 | 90 |  |  |  |  |  | Activity [1]: 90%; Activity (Thanatephorus cucumeris [6]): 90%; Activity [10]: 90%
CNC(=O)/C(=N/OC)c1ccccc1COc1cccc(F)c1F |  | 90 | 90 |  | <90 | <90 | 90 | <90 |  | Activity [1]: 90%
CNC(=O)/C(=N/OC)c1ccccc1COc1cccc([N+](=O)[O-])c1 |  |  |  |  | <90 | <90 | 90 | 90 | 90 | Activity (Podosphaera fuliginea [15]): <90%

SMILES | Activity [2] [%] | Activity (Podosphaera fuliginea [3]) [%] | Activity (Botrytis cinerea [4]) [%] | Activity (Pyricularia oryzae [5]) [%] | Activity [7] [%] | Activity (Thanatephorus cucumeris [8]) [%] | Activity [9] [%] | Activity (Pyricularia oryzae [13]) [%] | Activity [14] [%] | also measured
CNC(=O)/C(=N/OC)c1ccccc1COc1cc(F)cc(F)c1 |  | 90 | 90 | 90 |  | 90 | 90 |  |  | Activity [1]: 90%; Activity [20]: 90%
CNC(=O)/C(=N/OC)c1ccccc1COc1ccc(Br)cc1 |  | 90 | 90 | 90 |  | <90 | 90 |  |  | Activity [1]: 90%; Activity [20]: 90%
CNC(=O)/C(=N/OC)c1ccccc1COc1ccc(F)cc1 |  | 90 | 90 |  |  | 90 | 90 | 90 |  | Activity [1]: 90%; Activity [20]: 90%
CNC(=O)/C(=N/OC)c1ccccc1COc1cccc(Br)c1 | 90 | 90 | 90 |  |  | <90 |  | 90 |  | Activity [10]: 90%
CNC(=O)/C(=N/OC)c1ccccc1COc1cc(Cl)c(Cl)cc1Cl | 90 |  | 90 | 90 |  |  |  |  |  | Activity [11]: 90%; Activity [20]: 90%; Activity (Podosphaera fuliginea [12]): 90%; Activity (Thanatephorus cucumeris [6]): 90%
C#CCOc1ccccc1OCc1ccccc1/C(=N\OC)C(=O)NC |  |  |  |  | <90 | <90 |  | 90 | <90 | Activity [21]: 90%; Activity (Podosphaera fuliginea [15]): 90%; Activity (Botrytis cinerea [19]): <90%
CNC(=O)/C(=N/OC)c1ccccc1COc1c(F)cccc1F |  | 90 |  | 90 |  | 90 | 90 |  |  | Activity [16]: 90%; Activity (Botrytis cinerea [18]): 90%; Activity [20]: 90%
CNC(=O)/C(=N/OC)c1ccccc1COc1ccccc1-c1ccccc1 |  |  |  |  | <90 | <90 |  | 90 | <90 | Activity [21]: 90%; Activity (Podosphaera fuliginea [15]): 90%; Activity (Botrytis cinerea [19]): <90%
CNC(=O)/C(=N/OC)c1ccccc1COc1c(C)cccc1C |  |  |  |  | <90 | <90 |  | 90 | 90 | Activity [21]: <90%; Activity (Podosphaera fuliginea [15]): 90%; Activity (Botrytis cinerea [19]): 90%
CNC(=O)/C(=N/OC)c1ccccc1COc1ccc(C(F)(F)F)cc1 |  | 90 | 90 | 90 |  | <90 | 90 |  |  | Activity [16]: 90%; Activity [10]: 90%
CNC(=O)/C(=N/OC)c1ccccc1COc1ccc(Cl)c(Cl)c1 |  |  | 90 | 90 |  | <90 | 90 |  |  | Activity [16]: 90%; Activity [20]: 90%; Activity (Podosphaera fuliginea [12]): 90%
CNC(=O)/C(=N/OC)c1ccccc1COc1cccc(Cl)c1Cl | 90 |  |  | 90 | <90 | <90 |  |  |  | Activity [11]: 90%; Activity (Botrytis cinerea [18]): 90%; Activity (Podosphaera fuliginea [12]): 90%
CNC(=O)/C(=N/OC)c1ccccc1COc1cc(Cl)cc(Cl)c1 | 90 | 90 | 90 |  |  | <90 |  | 90 |  | Activity [16]: 90%; Activity [20]: 90%
CNC(=O)/C(=N/OC)c1ccccc1COc1ccccc1Cl |  | 90 | 90 | 90 | 90 | 90 | 90 |  |  | Activity [1]: 90%
CNC(=O)/C(=N/OC)c1ccccc1COc1ccc(C)cc1 | 90 |  | 90 | 90 | <90 | <90 |  |  |  | Activity [1]: 90%; Activity (Podosphaera fuliginea [12]): 90%
